How the values were obtained:
Details in all cases: exposure time: 72 h
E31 [1] = patient-derived glioblastoma stem cells of proneural subtype; assay: surviving fraction (nuclei count normalised to DMSO); higher = more cells surviving (less toxic)
E21 [2] = patient-derived glioblastoma stem cells of mesenchymal subtype; assay: as above
E13 [3] = patient-derived glioblastoma stem cells of classical subtype; assay: as above
E28 [4] = patient-derived glioblastoma stem cells of classical subtype; assay: as above
FT3469 [5] = normal neural stem cell line; assay: as above
E34 [6] = patient-derived glioblastoma stem cells of proneural subtype; assay: as above
E57 [7] = patient-derived glioblastoma stem cells of mesenchymal subtype; assay: as above
E31 [8] = assay: phenotypic distance (Euclidean, principal components) from DMSO controls (arbitrary units); higher = stronger morphological change
E21 [9] = assay: as above
E13 [10] = assay: as above
E28 [11] = assay: as above
FT3469 [12] = assay: as above
E34 [13] = assay: as above
E57 [14] = assay: as above
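Wherever phenotypic distance (Euclidean, principal components) from DMSO controls is given: cell Painting imaging in 384-well plates, CellProfiler features reduced to at least 20 principal components, Euclidean distance versus same-plate DMSO vehicle wells (0.1% v/v), median over six images per well.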
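Wherever surviving fraction (nuclei count normalised to DMSO) is given: nuclei counted by high-content imaging of Hoechst-stained cells in laminin-coated 384-well plates, relative to 0.1% DMSO vehicle wells, with staurosporine as cell-death control.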

Nc1nc(=O)c2nc(CNc3ccc(C(=O)N[C@@H](CCC(=O)O)C(=O)O)cc3)cnc2[nH]1 [Folic acid]
Details | phenotypic distance | surviving fraction
E13 [3], 4.1 nM | – | 0.982
E13 [3], 12.3 nM | – | 1.06
E13 [3], 37 nM | – | 0.964
E13 [3], 111.1 nM | – | 1
E13 [3], 333.3 nM | – | 1.17
E13 [3], 1000 nM | – | 1.02
E13 [3], 3000 nM | – | 1.21
E13 [10], 4.1 nM | 0.778 | –
E13 [10], 12.3 nM | 0.355 | –
E13 [10], 37 nM | 0.501 | –
E13 [10], 111.1 nM | 0.396 | –
E13 [10], 333.3 nM | 0.695 | –
E13 [10], 1000 nM | 0.593 | –
E13 [10], 3000 nM | 0.805 | –
E21 [2], 4.1 nM | – | 0.915
E21 [2], 12.3 nM | – | 1.07
E21 [2], 37 nM | – | 1
E21 [2], 111.1 nM | – | 1.07
E21 [2], 333.3 nM | – | 1.01
E21 [2], 1000 nM | – | 1.07
E21 [2], 3000 nM | – | 0.972
E21 [9], 4.1 nM | 0.612 | –
E21 [9], 12.3 nM | 0.186 | –
E21 [9], 37 nM | 0.499 | –
E21 [9], 111.1 nM | 0.624 | –
E21 [9], 333.3 nM | 0.464 | –
E21 [9], 1000 nM | 0.432 | –
E21 [9], 3000 nM | 0.539 | –
E28 [4], 4.1 nM | – | 0.971
E28 [4], 12.3 nM | – | 1.05
E28 [4], 37 nM | – | 1.11
E28 [4], 111.1 nM | – | 0.954
E28 [4], 333.3 nM | – | 1.01
E28 [4], 1000 nM | – | 1.31
E28 [4], 3000 nM | – | 0.925
E28 [11], 4.1 nM | 0.522 | –
E28 [11], 12.3 nM | 0.383 | –
E28 [11], 37 nM | 0.987 | –
E28 [11], 111.1 nM | 0.572 | –
E28 [11], 333.3 nM | 0.378 | –
E28 [11], 1000 nM | 0.745 | –
E28 [11], 3000 nM | 0.583 | –
E31 [1], 4.1 nM | – | 1.13
E31 [1], 12.3 nM | – | 0.968
E31 [1], 37 nM | – | 0.961
E31 [1], 111.1 nM | – | 0.969
E31 [1], 333.3 nM | – | 1.03
E31 [1], 1000 nM | – | 1.14
E31 [1], 3000 nM | – | 0.872
E31 [8], 4.1 nM | 0.277 | –
E31 [8], 12.3 nM | 0.448 | –
E31 [8], 37 nM | 0.256 | –
E31 [8], 111.1 nM | 0.408 | –
E31 [8], 333.3 nM | 0.439 | –
E31 [8], 1000 nM | 0.452 | –
E31 [8], 3000 nM | 0.335 | –
E34 [6], 4.1 nM | – | 1.15
E34 [6], 12.3 nM | – | 1.03
E34 [6], 37 nM | – | 0.979
E34 [6], 111.1 nM | – | 1.12
E34 [6], 333.3 nM | – | 0.974
E34 [6], 1000 nM | – | 1.04
E34 [6], 3000 nM | – | 0.925
E34 [13], 4.1 nM | 1.01 | –
E34 [13], 12.3 nM | 0.395 | –
E34 [13], 37 nM | 0.531 | –
E34 [13], 111.1 nM | 0.763 | –
E34 [13], 333.3 nM | 0.579 | –
E34 [13], 1000 nM | 0.38 | –
E34 [13], 3000 nM | 0.822 | –
E57 [7], 4.1 nM | – | 1.03
E57 [7], 12.3 nM | – | 1.03
E57 [7], 37 nM | – | 0.994
E57 [7], 111.1 nM | – | 0.948
E57 [7], 333.3 nM | – | 1.01
E57 [7], 1000 nM | – | 1.03
E57 [7], 3000 nM | – | 0.903
E57 [14], 4.1 nM | 0.364 | –
E57 [14], 12.3 nM | 0.555 | –
E57 [14], 37 nM | 0.5 | –
E57 [14], 111.1 nM | 0.927 | –
E57 [14], 333.3 nM | 0.637 | –
E57 [14], 1000 nM | 0.333 | –
E57 [14], 3000 nM | 0.748 | –
FT3469 [5], 4.1 nM | – | 1.16
FT3469 [5], 12.3 nM | – | 1.03
FT3469 [5], 37 nM | – | 1.12
FT3469 [5], 111.1 nM | – | 1.01
FT3469 [5], 333.3 nM | – | 1.05
FT3469 [5], 1000 nM | – | 1.1
FT3469 [5], 3000 nM | – | 0.939
FT3469 [12], 4.1 nM | 0.931 | –
FT3469 [12], 12.3 nM | 0.68 | –
FT3469 [12], 37 nM | 0.676 | –
FT3469 [12], 111.1 nM | 0.509 | –
FT3469 [12], 333.3 nM | 0.439 | –
FT3469 [12], 1000 nM | 1.06 | –
FT3469 [12], 3000 nM | 0.675 | –

— the supplement of paper PMC13207355
